Results on one compound are retold here after PMC5218480 (PLoS ONE, 2017).

The test deals with MV-4-11 cells. Kind of test: Gene expression microarray analysis (Affymetrix PrimeView) and GSEA. Format: cell-based, human. Also noted: RFU PODN (11730768_x_at) / Fold change /veh PODN (11730768_x_at) / RFU LINC00158 (11744669_a_at) / Fold change /veh LINC00158 (11744669_a_at) / RFU DUSP10 (11751237_a_at) / Fold change /veh DUSP10 (11751237_a_at) / RFU ID3 (11757404_x_at) / Fold change /veh ID3 (11757404_x_at) / RFU PLEKHG5 (11737974_s_at) / Fold change /veh PLEKHG5 (11737974_s_at) / RFU LRRC4B (11730491_at) / Fold change /veh LRRC4B (11730491_at) / RFU GIMAP4 (11747438_a_at) / Fold change /veh GIMAP4 (11747438_a_at) / RFU KRT8 (11758183_x_at) / Fold change /veh KRT8 (11758183_x_at) / RFU CNN1 (11734310_a_at) / Fold change /veh CNN1 (11734310_a_at) / RFU VPS37D (11726825_at) / Fold change /veh VPS37D (11726825_at) / RFU C10orf10 (11716522_x_at) / Fold change /veh C10orf10 (11716522_x_at) / RFU KIR2DL2 /// KIR2DL4 /// KIR2DL5A /// KIR2DL5B /// KIR2DS1 /// KIR2DS2 /// KIR2DS3 /// KIR2DS4 /// KIR3DL3 /// KIR3DL3 /// KIR3DS1 (11738374_at) / Fold change /veh KIR2DL2 /// KIR2DL4 /// KIR2DL5A /// KIR2DL5B /// KIR2DS1 /// KIR2DS2 /// KIR2DS3 /// KIR2DS4 /// KIR3DL3 /// KIR3DL3 /// KIR3DS1 (11738374_at) / RFU C1QL1 (11718748_at) / Fold change /veh C1QL1 (11718748_at) / RFU TMPRSS4 (11747572_a_at) / Fold change /veh TMPRSS4 (11747572_a_at) / RFU HAMP (11756126_x_at) / Fold change /veh HAMP (11756126_x_at) / RFU RNFT2 (11725882_a_at) / Fold change /veh RNFT2 (11725882_a_at) / RFU NR4A2 (11747474_a_at) / Fold change /veh NR4A2 (11747474_a_at) / RFU ABCC12 (11746883_a_at) / Fold change /veh ABCC12 (11746883_a_at) / RFU TMEM136 (11760407_x_at) / Fold change /veh TMEM136 (11760407_x_at) / RFU CLDN22 /// WWC2 (11732394_at) / Fold change /veh CLDN22 /// WWC2 (11732394_at) / RFU HLA-DPB1 (11760878_x_at) / Fold change /veh HLA-DPB1 (11760878_x_at) / RFU SPINT1 (11716480_a_at) / Fold change /veh SPINT1 (11716480_a_at) / RFU GAP43 (11754022_s_at) / Fold change /veh GAP43 (11754022_s_at) / RFU A4GNT (11735810_at) / Fold change /veh A4GNT (11735810_at) / RFU PRB3 (11715151_x_at) / Fold change /veh PRB3 (11715151_x_at) / RFU TUBB4B (11761932_at) / Fold change /veh TUBB4B (11761932_at) / RFU CAPN14 (11732068_a_at) / Fold change /veh CAPN14 (11732068_a_at) / RFU TMCC2 (11721928_a_at) / Fold change /veh TMCC2 (11721928_a_at) / RFU IRGQ (11745062_a_at) / Fold change /veh IRGQ (11745062_a_at) / RFU FAM174B (11720279_a_at) / Fold change /veh FAM174B (11720279_a_at) / RFU TMPRSS4 (11748680_a_at) / Fold change /veh TMPRSS4 (11748680_a_at) / RFU FAM212B (11763350_a_at) / Fold change /veh FAM212B (11763350_a_at) / RFU PLEKHG5 (11743358_a_at) / Fold change /veh PLEKHG5 (11743358_a_at) / RFU ZSCAN30 (11745921_a_at) / Fold change /veh ZSCAN30 (11745921_a_at) / RFU CMKLR1 (11741424_a_at) / Fold change /veh CMKLR1 (11741424_a_at) / RFU LOC101060620 /// MAPK8IP1 (11723275_at) / Fold change /veh LOC101060620 /// MAPK8IP1 (11723275_at) / RFU SPTSSB (11747773_x_at) / Fold change /veh SPTSSB (11747773_x_at) / RFU PRSS12 (11739890_at) / Fold change /veh PRSS12 (11739890_at) / RFU BIN1 (11741810_x_at) / Fold change /veh BIN1 (11741810_x_at) / RFU WNT11 (11732464_a_at) / Fold change /veh WNT11 (11732464_a_at) / RFU C10orf10 (11716521_a_at) / Fold change /veh C10orf10 (11716521_a_at) / RFU C5orf56 (11738089_at) / Fold change /veh C5orf56 (11738089_at) / RFU CYB561 (11721691_x_at) / Fold change /veh CYB561 (11721691_x_at) / RFU ANKRD19P (11752326_a_at) / Fold change /veh ANKRD19P (11752326_a_at) / RFU OR2T12 /// OR2T33 /// OR2T8 (11738714_s_at) / Fold change /veh OR2T12 /// OR2T33 /// OR2T8 (11738714_s_at) / RFU VCAN (11748164_a_at) / Fold change /veh VCAN (11748164_a_at) / RFU JSRP1 (11732532_at) / Fold change /veh JSRP1 (11732532_at) / RFU KRTAP10-11 (11738290_x_at) / Fold change /veh KRTAP10-11 (11738290_x_at) / RFU MYO3A (11730013_a_at) / Fold change /veh MYO3A (11730013_a_at) / RFU EBF3 (11725865_a_at) / Fold change /veh EBF3 (11725865_a_at) / RFU CAMK2N1 (11719241_x_at) / Fold change /veh CAMK2N1 (11719241_x_at) / RFU C5orf56 (11738088_a_at) / Fold change /veh C5orf56 (11738088_a_at) / RFU OLFML3 (11715873_a_at) / Fold change /veh OLFML3 (11715873_a_at) / RFU LOC100653217 /// NTM (11731650_a_at) / Fold change /veh LOC100653217 /// NTM (11731650_a_at) / RFU MAPK11 (11762145_a_at) / Fold change /veh MAPK11 (11762145_a_at) / RFU FIZ1 (11724087_x_at) / Fold change /veh FIZ1 (11724087_x_at) / RFU OASL (11726364_x_at) / Fold change /veh OASL (11726364_x_at) / RFU SOX15 (11748057_x_at) / Fold change /veh SOX15 (11748057_x_at) / RFU CD79A (11719716_a_at) / Fold change /veh CD79A (11719716_a_at) / RFU HIST1H1D (11736915_at) / Fold change /veh HIST1H1D (11736915_at) / RFU CASKIN2 (11723855_a_at) / Fold change /veh CASKIN2 (11723855_a_at) / RFU LOC730098 (11760151_x_at) / Fold change /veh LOC730098 (11760151_x_at) / RFU OR4N2 (11742367_at) / Fold change /veh OR4N2 (11742367_at) / RFU PRRT2 (11749266_a_at) / Fold change /veh PRRT2 (11749266_a_at) / RFU SNX32 (11753110_a_at) / Fold change /veh SNX32 (11753110_a_at) / RFU CDHR5 (11726645_a_at) / Fold change /veh CDHR5 (11726645_a_at) / RFU RCAN1 (11760418_a_at) / Fold change /veh RCAN1 (11760418_a_at) / RFU FAM167A (11723789_a_at) / Fold change /veh FAM167A (11723789_a_at) / RFU FAM26E (11764081_at) / Fold change /veh FAM26E (11764081_at) / RFU ISYNA1 (11749810_s_at) / Fold change /veh ISYNA1 (11749810_s_at) / RFU ACY1 (11761880_at) / Fold change /veh ACY1 (11761880_at) / RFU 11764098_at / Fold change /veh 11764098_at / RFU SAMD14 (11745864_x_at) / Fold change /veh SAMD14 (11745864_x_at) / RFU NPB (11741838_a_at) / Fold change /veh NPB (11741838_a_at) / RFU TMPRSS6 (11731388_a_at) / Fold change /veh TMPRSS6 (11731388_a_at) / RFU KRTAP10-2 (11738614_at) / Fold change /veh KRTAP10-2 (11738614_at) / RFU ARHGAP8 /// PRR5-ARHGAP8 (11727945_x_at) / Fold change /veh ARHGAP8 /// PRR5-ARHGAP8 (11727945_x_at) / RFU KRTAP5-7 /// NADSYN1 (11734609_at) / Fold change /veh KRTAP5-7 /// NADSYN1 (11734609_at) / RFU RASL12 (11751679_a_at) / Fold change /veh RASL12 (11751679_a_at) / RFU CDKN2B (11736163_a_at) / Fold change /veh CDKN2B (11736163_a_at) / RFU PRF1 (11729649_at) / Fold change /veh PRF1 (11729649_at) / RFU, ZNF638 /// ZNF638-IT1 / Fold change vs veh, ZNF638 /// ZNF638-IT1 / RFU, PANK3 / Fold change vs veh, PANK3 / RFU, SH3YL1 / Fold change vs veh, SH3YL1 / RFU, ZEB2 / Fold change vs veh, ZEB2 / RFU, NRIP1 / Fold change vs veh, NRIP1 / RFU, PTTG1IP / Fold change vs veh, PTTG1IP / RFU, CAPN2 / Fold change vs veh, CAPN2 / RFU, MED14 / Fold change vs veh, MED14 / RFU, SNORA58 / Fold change vs veh, SNORA58 / RFU, C1orf63 / Fold change vs veh, C1orf63 / RFU, LRRFIP1 / Fold change vs veh, LRRFIP1 / RFU, NDUFAF7 / Fold change vs veh, NDUFAF7 / RFU, SLC12A2 / Fold change vs veh, SLC12A2 / RFU, IBTK / Fold change vs veh, IBTK / RFU, ESF1 / Fold change vs veh, ESF1 / Fold change vs veh, TMEM50B / RFU, TAOK1 / Fold change vs veh, TAOK1 / RFU, ACBD3 / Fold change vs veh, ACBD3 / RFU, TMA16 / Fold change vs veh, TMA16 / RFU, RWDD3 / Fold change vs veh, RWDD3 / RFU, BCAT1 / Fold change vs veh, BCAT1 / RFU, EDEM3 / Fold change vs veh, EDEM3 / RFU, TMEM33 / Fold change vs veh, TMEM33 / RFU, WDR75 / Fold change vs veh, WDR75 / RFU, AHCTF1 / Fold change vs veh, AHCTF1 / RFU, TFRC / Fold change vs veh, TFRC / RFU, ZDHHC17 / Fold change vs veh, ZDHHC17 / RFU, NOM1 / Fold change vs veh, NOM1 / RFU, ARL8B / Fold change vs veh, ARL8B / RFU, ZBTB11 / Fold change vs veh, ZBTB11 / RFU, TAMM41 / Fold change vs veh, TAMM41 / RFU, KIAA1704 /// LOC100996395 / Fold change vs veh, KIAA1704 /// LOC100996395 / RFU, ING1 / Fold change vs veh, ING1 / RFU, TRMT61B / Fold change vs veh, TRMT61B / RFU, FUBP3 / Fold change vs veh, FUBP3 / RFU, TP53 / Fold change vs veh, TP53 / RFU, TNKS2 / Fold change vs veh, TNKS2 / RFU, ZFP14 / Fold change vs veh, ZFP14 / RFU, ACTR2 / Fold change vs veh, ACTR2 / RFU, PPP3R1 / Fold change vs veh, PPP3R1 / RFU, PIK3R1 / Fold change vs veh, PIK3R1 / RFU, HNRNPA1 / Fold change vs veh, HNRNPA1 / RFU, RNF170 / Fold change vs veh, RNF170 / RFU, ZNF28 / Fold change vs veh, ZNF28 / RFU, RNGTT / Fold change vs veh, RNGTT / RFU, OGT / Fold change vs veh, OGT / RFU, BRD1 / Fold change vs veh, BRD1 / RFU, MARS / Fold change vs veh, MARS / RFU, ZNF655 / Fold change vs veh, ZNF655 / RFU, FAHD1 / Fold change vs veh, FAHD1 / RFU, BDP1 / Fold change vs veh, BDP1 / RFU, LRRCC1 / Fold change vs veh, LRRCC1 / RFU, ARID1A / Fold change vs veh, ARID1A / RFU, ZNF146 / Fold change vs veh, ZNF146 / RFU, ZNF330 / Fold change vs veh, ZNF330 / RFU, GPN3 / Fold change vs veh, GPN3 / RFU, C9orf123 / Fold change vs veh, C9orf123 / RFU, N4BP2L2 / Fold change vs veh, N4BP2L2 / RFU, ARFIP1 / Fold change vs veh, ARFIP1 / RFU, FAM179B / Fold change vs veh, FAM179B / RFU, BCL10 / Fold change vs veh, BCL10 / RFU, UHRF1BP1L / Fold change vs veh, UHRF1BP1L / RFU, BET1 / Fold change vs veh, BET1 / RFU, CNOT2 / Fold change vs veh, CNOT2 / RFU, ZNF268 / Fold change vs veh, ZNF268 / Fold change vs veh, ZNF507 / RFU, DGCR2 / Fold change vs veh, DGCR2 / RFU, WDSUB1 / Fold change vs veh, WDSUB1 / Fold change vs veh, HSP90B1 /// MIR3652 / RFU, ADSS / Fold change vs veh, ADSS / RFU, GK / Fold change vs veh, GK / RFU, ZNF148 / Fold change vs veh, ZNF148 / RFU, TAF9 / Fold change vs veh, TAF9 / RFU, SLC1A5 / Fold change vs veh, SLC1A5 / RFU, SLMO2 / Fold change vs veh, SLMO2 / RFU, ABCC4 / Fold change vs veh, ABCC4 / RFU, LOC101060439 /// RAP1B / Fold change vs veh, LOC101060439 /// RAP1B / RFU, RFX7 / Fold change vs veh, RFX7 / RFU, GTPBP10 / Fold change vs veh, GTPBP10 / RFU, CNEP1R1 / Fold change vs veh, CNEP1R1 / RFU, BIVM-ERCC5 /// ERCC5 / Fold change vs veh, BIVM-ERCC5 /// ERCC5 / RFU, ILF3 / Fold change vs veh, ILF3 / RFU 11762660_at / Fold change /veh 11762660_at / RFU VCAN (11757783_s_at) / Fold change /veh VCAN (11757783_s_at) / RFU DDX43 (11728927_at) / Fold change /veh DDX43 (11728927_at) / RFU KRT8 (11758188_x_at) / Fold change /veh KRT8 (11758188_x_at) / RFU NKD1 (11759106_at) / Fold change /veh NKD1 (11759106_at) / RFU SRD5A1 (11742802_a_at) / Fold change /veh SRD5A1 (11742802_a_at) / RFU TPSAB1 /// TPSB2 (11721975_s_at) / Fold change /veh TPSAB1 /// TPSB2 (11721975_s_at) / RFU GSTM3 (11746129_a_at) / Fold change /veh GSTM3 (11746129_a_at) / RFU IL23R (11737362_x_at) / Fold change /veh IL23R (11737362_x_at) / RFU TMEM51 (11727254_a_at) / Fold change /veh TMEM51 (11727254_a_at) / RFU PIWIL2 (11732686_x_at) / Fold change /veh PIWIL2 (11732686_x_at) / RFU ORM1 (11744905_x_at) / Fold change /veh ORM1 (11744905_x_at) / RFU CCDC152 (11743942_at) / Fold change /veh CCDC152 (11743942_at) / RFU ECM1 (11717891_a_at) / Fold change /veh ECM1 (11717891_a_at) / RFU IL23R (11748794_a_at) / Fold change /veh IL23R (11748794_a_at) / RFU TNFAIP8L3 (11732012_x_at) / Fold change /veh TNFAIP8L3 (11732012_x_at) / RFU MBOAT4 (11741988_at) / Fold change /veh MBOAT4 (11741988_at) / RFU 11764193_at / Fold change /veh 11764193_at / RFU TMEM53 (11763286_at) / Fold change /veh TMEM53 (11763286_at) / RFU MAGEB2 (11727129_at) / Fold change /veh MAGEB2 (11727129_at) / RFU TMEM200A (11744735_a_at) / Fold change /veh TMEM200A (11744735_a_at) / RFU CCDC152 (11751479_a_at) / Fold change /veh CCDC152 (11751479_a_at) / RFU FAM211A (11726209_a_at) / Fold change /veh FAM211A (11726209_a_at) / RFU RGS16 (11746705_a_at) / Fold change /veh RGS16 (11746705_a_at) / RFU VCAN (11755009_s_at) / Fold change /veh VCAN (11755009_s_at) / RFU RHOB (11743442_s_at) / Fold change /veh RHOB (11743442_s_at) / RFU RGS16 (11720943_a_at) / Fold change /veh RGS16 (11720943_a_at) / RFU RGS16 (11720944_at) / Fold change /veh RGS16 (11720944_at) / RFU, VPS4B / Fold change vs veh, VPS4B / RFU, CREB1 / Fold change vs veh, CREB1 / RFU, DNAJC13 / Fold change vs veh, DNAJC13 / RFU, GNAQ / Fold change vs veh, GNAQ / RFU, CDK5R1 / Fold change vs veh, CDK5R1 / RFU, ZRANB3 / Fold change vs veh, ZRANB3 / RFU, CUL4A / Fold change vs veh, CUL4A / RFU, CCNY / Fold change vs veh, CCNY / RFU, UFL1 / Fold change vs veh, UFL1 / RFU, COG3 / Fold change vs veh, COG3 / RFU, DIAPH2 / Fold change vs veh, DIAPH2 / RFU, SKA2 / Fold change vs veh, SKA2 / RFU, AFF3 / Fold change vs veh, AFF3 / RFU, LMF1 / Fold change vs veh, LMF1 / RFU, IPO11 / Fold change vs veh, IPO11 / RFU, DFFB / Fold change vs veh, DFFB / RFU, FOXP1 / Fold change vs veh, FOXP1 / RFU, CARD8 / Fold change vs veh, CARD8 / RFU, STRN3 / Fold change vs veh, STRN3 / RFU, ADK / Fold change vs veh, ADK / RFU, RASSF2 / Fold change vs veh, RASSF2 / RFU, WIPF1 / Fold change vs veh, WIPF1 / RFU, LARP1B / Fold change vs veh, LARP1B / RFU, RASA1 / Fold change vs veh, RASA1 / RFU, RB1 / Fold change vs veh, RB1 / RFU, PPFIA1 / Fold change vs veh, PPFIA1 / RFU, MAT2A / Fold change vs veh, MAT2A / RFU, CCT5 / Fold change vs veh, CCT5 / RFU, WDR92 / Fold change vs veh, WDR92 / RFU, CUX1 / Fold change vs veh, CUX1 / RFU, TTC7A / Fold change vs veh, TTC7A / RFU, TMEM135 / Fold change vs veh, TMEM135 / RFU, DEPTOR / Fold change vs veh, DEPTOR / RFU, CPM / Fold change vs veh, CPM / RFU, DNAJB6 / Fold change vs veh, DNAJB6 / RFU, CACNA2D3 / Fold change vs veh, CACNA2D3 / RFU, DTX4 / Fold change vs veh, DTX4 / RFU, TFCP2 / Fold change vs veh, TFCP2 / RFU, GMCL1 /// GMCL1P1 / Fold change vs veh, GMCL1 /// GMCL1P1 / RFU, AEBP2 / Fold change vs veh, AEBP2 / RFU, SNHG1 /// SNORD22 /// SNORD25 /// SNORD26 /// SNORD27 /// SNORD28 /// SNORD29 /// SNORD31 / Fold change vs veh, SNHG1 /// SNORD22 /// SNORD25 /// SNORD26 /// SNORD27 /// SNORD28 /// SNORD29 /// SNORD31 / Fold change (Aza/veh), C12orf56 (ProbeSet 11735607_a_at) / Fold change (ACY-1035/veh), C12orf56 (ProbeSet 11735607_a_at) / Fold change (Aza/veh), FGFR1OP (ProbeSet 11751329_s_at) / Fold change (ACY-1035/veh), FGFR1OP (ProbeSet 11751329_s_at) / Fold change (Aza/veh), VPS36 (ProbeSet 11739960_a_at) / Fold change (ACY-1035/veh), VPS36 (ProbeSet 11739960_a_at) / RFU SYPL1 (11715823_x_at) / Fold change /veh SYPL1 (11715823_x_at) / RFU IGFBP7 (11715501_s_at) / Fold change /veh IGFBP7 (11715501_s_at) / RFU REEP3 (11722064_at) / Fold change /veh REEP3 (11722064_at) / RFU IGLL1 (11728026_x_at) / Fold change /veh IGLL1 (11728026_x_at): dose or concentration left out as unconfirmed. Particulars: MV-4-11 cells, 48 hours.

The structures appear in SMILES notation.

As to `Nc1ccc(-c2cccs2)cc1NC(=O)c1ccc2c(c1)cc(C1CC1)n2CCN1CCOCC1` [ACY-1035], the “Fold change /veh TMPRSS4 (11748680_a_at)” value is 1.05.
